The source made the active and inactive calls. The rule behind the calls is not given here. Bounds are passed on as bounds.

A word on the EC50: it is the concentration that produces a half-maximal response. For orientation: IC50 means the concentration needed to halve the response being measured. Higher therefore signals lower potency. By GI50 is commonly meant the concentration that inhibits growth by half. Higher therefore signals less potent growth inhibition. In general, Kd refers to the constant that tells how readily two partners part at equilibrium.

Assay [1] has as its target T1, Peptidyl-prolyl cis-trans isomerase NIMA-interacting 1 (Homo sapiens, UniProt Q13526). Nature of the assay: Inhibition of Pin1-mediated cyclin D1 expression in serum starved human PC3 cells. It is filed as cell-based, PC-3.
Assay [2] concerns the target T1, Peptidyl-prolyl cis-trans isomerase NIMA-interacting 1. Nature of the assay: Inhibition of Pin1 by PIn1 PPIase assay.
Assay [3] concerns the target Peptidyl-prolyl cis-trans isomerase FKBP1A (Homo sapiens) (UniProt P62942). Nature of the assay: Inhibition of FKBP12.
Assay [4] concerns the target Peptidyl-prolyl cis-trans isomerase A (Homo sapiens) (UniProt P62937). Nature of the assay: Inhibition of cyclophilin A.
Assay [5] concerns PC-3. Nature of the assay: Inhibition of cyclin E1 expression in serum starved human PC3 cells. In kind it is functional, cell-based.
For assay [6], the system named is PC-3. Nature of the assay: Growth inhibition of serum starved human PC3 cells. In kind it is functional.
The target of assay [7] is T1, Peptidyl-prolyl cis-trans isomerase NIMA-interacting 1. Nature of the assay: Inhibition of Pin1 in serum starved human PC3 cells assessed as reduction in insulin-induced p7)S6 kinase phosphorylation. In kind it is cell-based, PC-3.
Assay [8] has the same target. Nature of the assay: Binding affinity to Pin1 by isothermal calorimetry. For orientation: ITC needs no label: the signal is the heat of the interaction.

T1 sequence (Q13526 whole entry): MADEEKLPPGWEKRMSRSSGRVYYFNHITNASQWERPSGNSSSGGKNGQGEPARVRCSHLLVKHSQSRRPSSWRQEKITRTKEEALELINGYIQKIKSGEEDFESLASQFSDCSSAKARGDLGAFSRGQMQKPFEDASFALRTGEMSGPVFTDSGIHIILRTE
Sequence of Peptidyl-prolyl cis-trans isomerase FKBP1A (Homo sapiens) (P62942 whole entry): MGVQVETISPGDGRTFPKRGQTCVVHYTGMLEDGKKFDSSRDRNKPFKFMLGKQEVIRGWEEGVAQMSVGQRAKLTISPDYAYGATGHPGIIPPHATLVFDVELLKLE
Sequence of Peptidyl-prolyl cis-trans isomerase A (Homo sapiens) (P62937 whole entry, looked up): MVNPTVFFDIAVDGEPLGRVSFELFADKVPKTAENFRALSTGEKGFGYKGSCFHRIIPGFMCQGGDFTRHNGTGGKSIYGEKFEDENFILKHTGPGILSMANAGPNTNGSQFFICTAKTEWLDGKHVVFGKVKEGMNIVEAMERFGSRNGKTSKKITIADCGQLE

In the case of `O=C(O)c1[nH]c(-c2ccccc2)nc1C(=O)N(CCc1ccccc1)Cc1ccccc1`, the results for the concentration giving a half-maximal response (EC50) in assay [1] and in assay [7] were 10 µM and 30 µM, respectively. For the same compound, in assay [2], the midpoint of inhibition, the IC50, lay at 0.83 µM. Also, the inhibition entry (in assay [3]; in assay [4]; with PC-3 [5]) was “inactive” in each case. The GI50 with PC-3 [6] turned out to be 13 µM.

With `Cc1nc(-c2cccc(C(F)(F)F)c2)[nH]c1C(=O)O`, inhibition in assay [2] was half-maximal at 23 µM (IC50).

On to `CN(Cc1ccccc1)C(=O)c1[nH]c(-c2cccc(Cl)c2)nc1C(=O)O`, for which, in the assay with PC-3 [6], the concentration for 50% growth inhibition (GI50) amounted to 56 µM.

For `O=C(O)c1[nH]c(-c2cccc(Cl)c2)nc1C(=O)N1CCOCC1`, the 50% inhibitory concentration (IC50) in assay [2] was 21 µM. In the assay with PC-3 [6], the GI50 was > 200 µM.

In the case of `CNC(=O)c1nc(-c2ccccc2)[nH]c1C(=O)O`, half-maximal inhibition in assay [2] (IC50) was put at 80 µM.

In assay [2], `CN(Cc1ccccc1)C(=O)c1nc(-c2ccccc2)[nH]c1C(=O)O` came in with an IC50 of 31 µM. The GI50 in the assay on PC-3 [6] is > 200 µM.

`O=C(O)c1nc(-c2ccccc2)[nH]c1C(=O)NCc1ccccc1` yielded an IC50 in assay [2] of 220 µM.

`NC(=O)CN(Cc1nc2ccccc2s1)C(=O)c1nc(-c2ccccc2)[nH]c1C(=O)O`: 0.52 µM corresponded to half-maximal inhibition in assay [2] (IC50). The GI50 in the assay on PC-3 [6] was > 80 µM.

On to `CN(CC(N)=O)C(=O)c1nc(-c2ccccc2)[nH]c1C(=O)O`, for which the GI50 in the assay with PC-3 [6] was > 200 µM.

On to `O=C(O)c1[nH]c(-c2ccccc2)nc1C(=O)N1CCOCC1`, for which the GI50 in the assay with PC-3 [6] was > 200 µM.

`CN(CC(=O)O)C(=O)c1nc(-c2ccccc2)[nH]c1C(=O)O` came in with an IC50 in assay [2] of 9.4 µM.

As to `COc1cccc(-c2nc(C)c(C(=O)O)[nH]2)c1`, the IC50 in assay [2] is 270 µM.

Compound `O=C(O)c1nc(-c2ccccc2)[nH]c1C(=O)O` registered an IC50 in assay [2] of 1.46 µM.

Regarding `COc1ccccc1-c1ccc(C(=O)O)o1`, the concentration for half-maximal inhibition (IC50) in assay [2] was > 1000 µM.

In turn, `O=C(O)c1nc(-c2cccc(F)c2)[nH]c1C(=O)O` had an IC50 in assay [2] of 0.32 µM. The compound further gave a dissociation constant (Kd) in assay [8] of 0.52 µM.

On to `Cc1cccc(-c2nc(C(=O)O)c(C)[nH]2)c1`, for which the IC50 in assay [2] worked out at 34 µM.

`Cc1nc(-c2cccc(C#N)c2)[nH]c1C(=O)O` returned an IC50 in assay [2] of 19 µM.

Take `O=C(O)c1[nH]c(-c2cccc(Cl)c2)nc1C(=O)N(Cc1ccccc1)Cc1ccccc1`: the concentration for half-maximal inhibition (IC50) in assay [2] was 1.4 µM. This compound yielded a dissociation constant (Kd) in assay [8] of 1.4 µM. In addition, halving of growth in the assay on PC-3 [6] (GI50) required 18 µM.

The compound `CCOC(=O)CN(Cc1ccccc1)C(=O)c1nc(-c2ccccc2)[nH]c1C(=O)O` came in with a 50% inhibitory concentration (IC50) in assay [2] of 8 µM. The GI50 in the assay on PC-3 [6] is > 200 µM.

Compound `O=C(O)c1nc(-c2ccccc2)[nH]c1C(=O)N(Cc1ccccc1)Cc1ccccc1` showed an IC50 in assay [2] of 4 µM. Also, the 50% growth inhibitory concentration (GI50) with PC-3 [6] worked out at 21 µM.

In the case of `CCNC(=O)c1nc(-c2ccccc2)[nH]c1C(=O)O`, the IC50 in assay [2] stood at 140 µM.

The record behind these values is ChEMBL document CHEMBL1268960, “Discovery of cell-active phenyl-imidazole Pin1 inhibitors by structure-guided fragment evolution” (Bioorg Med Chem Lett, 2010).
